Data: paper PMC5344920, “Drug Repurposing of the Anthelmintic Niclosamide to Treat Multidrug-Resistant Leukemia” (Frontiers in Pharmacology, 2017)

Target: T1, recombinant human GS (GSH synthetase, glutathione synthetase) (Homo sapiens, UniProt P48637)
T1 construct: gene GSS; commercial recombinant protein (Abcam, Cambridge, UK), labelled on amines with BLUE-NHS dye
T1 sequence (P48637 2-474): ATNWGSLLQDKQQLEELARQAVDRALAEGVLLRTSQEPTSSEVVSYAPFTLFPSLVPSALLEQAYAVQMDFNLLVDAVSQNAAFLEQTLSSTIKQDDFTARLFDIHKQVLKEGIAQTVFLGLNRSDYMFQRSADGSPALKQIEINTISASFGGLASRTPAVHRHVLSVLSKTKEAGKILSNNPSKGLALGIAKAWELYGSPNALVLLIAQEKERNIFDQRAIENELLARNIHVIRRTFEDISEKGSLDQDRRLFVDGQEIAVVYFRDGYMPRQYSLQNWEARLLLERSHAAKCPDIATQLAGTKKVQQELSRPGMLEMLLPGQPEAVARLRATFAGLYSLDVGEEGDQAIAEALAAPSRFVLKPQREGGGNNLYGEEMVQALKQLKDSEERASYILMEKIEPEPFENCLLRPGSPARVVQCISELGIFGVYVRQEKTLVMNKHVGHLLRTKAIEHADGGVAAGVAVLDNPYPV
Assay: microscale thermophoresis, BLUE-NHS labelled protein
Details: read-out: equilibrium binding constant

Compound: O=C(Nc1ccc([N+](=O)[O-])cc1Cl)c1cc(Cl)ccc1O [niclosamide]
- Kd: 5.64 µM
